Measurements: US20140100183A1, “CENTRAL ADMINISTRATION OF STABLE FORMULATIONS OF THERAPEUTIC AGENTS FOR CNS CONDITIONS” (The Regents of the University of Colorado, a body corporate, priority 2006, published 2014)
Counter-ions that a name gives are not always drawn. Like-named read-outs stand apart in the source and are kept apart here. Marks after values point to notes of the source that are not given here.

How the values were obtained:
[1] = test system: human; details: effective daily dose, oral; cited from earlier work
[2] = test system: anxiety in rats (elevated plus maze, open field); assay: Elevated plus maze and open field conflicts test after ICV antidepressants; type: in vivo, rat; details: for Rodent ICV dose: anxiety reduction; for % of Oral dose: rodent ICV dose vs human oral equivalent
Description: Various antidepressants were injected via ICV, and animals monitored in standard elevated plus maze and open field conflicts test.
Rats are placed in the center of a pluz-shaped maze. The arms are 13 cm wide; two arms were open and two are enclosed by 32 cm high walls. The maze is elevated off the flor by 51 cm. The percent of time and distance traveled in each type of arm over the 4 minute test period is calculated by computer. Increased time and distance traveled in the open arms is thought to reflect anxiolytic activity.
Rats are place against 1 side of a 104 cm square box with 32 cm sides. The activity of the rat is monitored by computer over a 4 minute testing period. A computer divides the openfied space into 25 equal squares arranged into an outer:ring” of 16 squares, a middle region of 8 squares and a central square. The percent of time and distarnce traveled in the center square by rats receiving the drug are calculated and compared to rats receiving a saline control. Increased time and distance traveled in the center square is thought to reflect anxiolytic activity.

[3] = cited from earlier work; for Comments: solubility: qualitative, solvents as given in the source
[4] = test system: patients diagnosed with psychotic disorders; assay: ICV or cisterna magna treatment of psychotic disorders (Example 5); details: central administration, 0.01 to 0.1 mg per hour, 1 week
Description: A 5 mg/ml solution of the active agent is solubilized in aqueous solution using beta-hydroxypropyl cyclodextrin, made isotonic with NaCl, and the pH is maintained at 7.4 with 10 mM sodium phosphate. […] The stabilized solution is inserted into a fluid reservoir attached to a Medtronic Synchromed-II intrathecal delivery system. The stabilized formulation is intracerebroventricularly or cistema magna injected into patients diagnosed with psychotic disorders.
Injection is continuous, using a computerized pump to provide a delivery rate of 0.01 to 0.1 mg of the active agent per hour, depending on the severity of symptoms.

[5] = test system: patients diagnosed with epilepsy disorders; assay: ICV or cisterna magna treatment of epilepsy (Example 6); type: in vivo, human; details: central administration, 0.01 to 0.1 mg per hour, 1 week
Description: After 1 week of treatment, epileptic frequency is reduced.

[6] = test system: pentylenetetrazole (PTZ) seizure induction in rats; assay: Pentylenetetrazole (PTZ) seizure induction model, ICV administration; type: in vivo, rat; details: for % Change: drug group vs vehicle group (-V); for Rodent ICV dose: effective daily dose, blocking seizures; for Efficacy: effective in blocking seizures; for % of Oral dose: rodent ICV dose vs human oral equivalent
Description: Rats are anesthetized, placed in a stereotaxic instrument and a burr hole opened over one anterior lateral ventricle. A cannula is lowered to the ventricle and 5 μl of solution containing the drug is injected into the ventricle over 10 minutes. The incision is then closed and the animal allowed to regain consciousness and remain conscious for 10 minutes. After 10 minutes has elapsed, pentylenetetrazole (PTZ, 10 mg/ml in saline) is injected through a tail-vein catheter at a constant rate of infusion (1 ml/min, Razel syringe pump) until a motor seizure is induced. PTZ seizures are identified as myoclonic jerking followed by clonus and tonus. The time from the initial application of PTZ to the first clonic seizure (i.e., forelimb clonus) is measured and defined as “latency to seiqure onset”. The total amount of PTZ infused is calculated and then divided by each rat;s body weight to obtain the dose (mg/kg) of PTZ. The dose required to attain status epilepticus is compared to the PTZ dose without antiseizure medication.

[7] = test system: sensory inhibition deficits in DBA/2 mice; assay: Sensory inhibition (paired auditory stimuli, TC ratio) after acute ICV administration; type: in vivo, mouse; details: 5 μg dose ICV
Description: The following methods were used to record the sensory inhibition.
The deficit in sensory inhibition can be quantified using the paired stimulus paradigm in which 2 identical stimuli are delivered 0.5 seconds apart and the electrophysiological response to each is recorded. In normal individuals, the response to the second, or test, stimulus, occurring 50 msec after stimulus onset, is reduced compared to the response to the first, or conditioning stimulus. However, schizophrenia patients have similar magnitude responses to both stimuli: The “TC ratio” is calculated by dividing the test amplitude by the conditioning amplitude. […] In normal individuals, the TC ratio is generally less than 0.4 while schizophrenia patients commonly have TC ratios above 0.5 and often approaching or exceeding 1.0.
In the present study, briefly, 5 baseline records were obtained in response to the paired auditory stimuli, prior to drug administration. […] Recordings were obtained at 5 minute intervals for 90 minutes post injection. Data analyzed included the amplitude of the response to the first stimulus (conditioning amplitude), amplitude of the response to the second stimulus (test amplitude) and the TC ratio (test amplitude/conditioning amplitude). This final parameter gives a measure of the level of inhibition in the circuit initiated by the conditioning stimulus. […] DBA/2 mice routinely have TC ratios of ≧0.8.

[8] = test system: primary mouse cortical neuron cultures; assay: Toxicity in primary mouse cortical neuron cultures (MTT); details: 24 hours, 0.002% to 0.1% in culture media
Description: In addition, a preliminary assessment of the toxicity of cyclodextrin in primary mouse cortical neuron cultures was performed. […] After dissection, and cellular dissociation, the cells were washed with Dulbecco's Modified Eagle's Medium with 10% fetal bovine serum. Following recentrifugation, the cells resuspended in plating medium, counted with trypan blue and plated at a constant density of 6.5×10^4 cells per well in a 96-well pre-coated plate. […] The cultures were maintained at 37° C. in a humidified atmosphere of 5% CO2. […] The cultures were incubated and cell toxicity assayed at 24, 48 and 72 hours. Viability was assessed by the MTT (3-(4,5 diethylthiazol-2-yl)-2,5)diphenyltetrazolium bromide) assay, CellTiter 96 Non-radioactive cell Proliferation Assay (Promega, Madison Wis.) and by visual examination.

CNCCC(Oc1ccc(C(F)(F)F)cc1)c1ccccc1 (racemic) [Fluoxetine, (+/−)-N-Methyl-3-phenyl-3-(alpha,alpha,alpha-trifluoro-p-tolyloxy)propylamine hydrochloride]
Human oral equivalent [1]: 0.33 mg/kg | Rodent ICV dose ([2]; estimated effective dose): 0.74** mg/kg | % of Oral dose [2]: 224%

Cc1nnc2n1-c1ccc(Cl)cc1C(c1ccccc1)=NC2 [ALPRAZOLAM, 8-Chloro-1-methyl-6-phenyl-4H-s-triazolo(4,3-a) (1,4) benzodiazepine]
Comments: solubility [3]: very slightly soluble in water

Clc1ccc2c(c1)C(N1CCNCC1)=Nc1ccccc1O2 [AMOXAPINE, 2-Chloro-11-(1-piperazinyl)dibenz(b,f)(1,4) oxazepine]
Comments: solubility [3]: Soluble 1 in 460 of water, 1 in 15 of boiling water, 1 in 3 of alcohol, 1 in 45 of chloroform, 1 in 3 of ether, and 1 in 135 of benzene.

CCN(CC)C(=S)SSC(=S)N(CC)CC [ANTABUSE, bis (diethylthiocarbamoyl) disulfide]
Solubility in water ([3]; at 22 C.): Soluble in water <0.1 g/100 mL at 22 C.

O=C1CCc2ccc(OCCCCN3CCN(c4cccc(Cl)c4Cl)CC3)cc2N1 [Aripiprazole]
alleviation of psychotic symptoms [4]: efficacious therapeutic alleviation of psychotic symptoms

CC(NC(C)(C)C)C(=O)c1cccc(Cl)c1.Cl (stereo not drawn) [BUPROPION, 1-(3-chlorophenyl)-2-[(1,1-dimethylethyl)amino]-1-propanone hydrochloride]
Comments: solubility [3]: freely soluble in water and soluble in alcohol and in chloroform.

CCCCNc1cc(C(=O)O)cc(S(N)(=O)=O)c1Oc1ccccc1 [Bumex]
Human oral equivalent [1]: 0.033 mg/kg | alleviation of seizures [5]: efficacious therapeutic alleviation of seizures | % Change [6]: 90% | Rodent ICV dose [6]: 0.000364 mg/kg | Efficacy [6]: effective in blocking | % of Oral dose [6]: 1.1%

CN(C)CCCN1c2ccccc2CCc2ccc(Cl)cc21 [Clomipramine, 3-(3-Chloro-10,11-dihydro-5H-dibenz[b,f]azepin-5-yl)propyldimethylamine hydrochloride]
Human oral equivalent [1]: 4.16 mg/kg | Rodent ICV dose ([2]; effective daily dose): 0.37 mg/kg | % of Oral dose [2]: 8.8%

CCN(CC)CCN1C(=O)CN=C(c2ccccc2F)c2cc(Cl)ccc21 [FLURAZEPAM, 7-chloro-1-[2-(diethylamino)ethyl]-5-(o-fluorophenyl)-1,3-dihydro-2H-1,4-benzodiazepin-2-one dihydrochloride]
Comments: solubility [3]: Soluble in water, in alcohol, and in 0.1N hydrochloric acid.

O=C1Cc2cc(CCN3CCN(c4nsc5ccccc45)CC3)c(Cl)cc2N1 [Geodon]
alleviation of psychotic symptoms [4]: efficacious therapeutic alleviation of psychotic symptoms

O=C(CCCN1CCC(O)(c2ccc(Cl)cc2)CC1)c1ccc(F)cc1 [HALOPERIDOL, 4-[4-(p-chlorophenyl)-4-hydroxypiperidino]-4′-fluorobutyrophenone]
Comments: solubility [3]: sparingly soluble in water and soluble in ethanol

OCCOCCN1CCN(C(c2ccccc2)c2ccc(Cl)cc2)CC1 (stereo not drawn) [HYDROXYZINE, 2-[2-[4-(p-chlorobenzhydryl)-1-piperazinyl]ethoxy]ethanol dihydrochloride.]
Comments: solubility [3]: slightly soluble in water and isopropyl alcohol, sparingly soluble in ethanol

CN(C)CCCN1c2ccccc2CCc2ccccc21 [IMIPRAMINE, 10,11-dihydro-N,N-dimethyl-5H-Dibenz[b,f]azepine-5-propanamine]
Comments: solubility [3]: insoluble in the common organic solvents, but very soluble in water.

CC1=CC(=O)N2CC(=O)N(C)c3ccc(Cl)cc3C2(c2ccccc2)O1 (stereo not drawn) [KETAZOLAM, 11-Chloro-8,12b-dihydro-2,8-dimethyl-12b-phenyl-4H-[1,3]oxazino[3,2-d][1,4]benzodiazepine-4,7(6H)-dione]
Comments: solubility [3]: Practically insoluble in water; slightly soluble in alcohol; freely soluble in chloroform

[Li] [LITHIUM]
Solubility in water ([3]; at 22 C.): water 0.1-0.5 g/100 mL

O=C1Nc2ccc(Cl)cc2C(c2ccccc2Cl)=NC1O (stereo not drawn) [LOREZAPAM, 7-chloro-5-(0-chlorophenyl)-1,3-dihydro-3-hydroxy-2H-1,4-benzo-diazepin-2-one]
Comments: solubility [3]: Very soluble in organic solvents.

Nc1nnc(-c2cccc(Cl)c2Cl)c(N)n1 [Lamictal]
Human oral equivalent [1]: 3.33 mg/kg

CCC(=O)C(CC(C)N(C)C)(c1ccccc1)c1ccccc1 (stereo not drawn) [METHADONE, 1,1-Diphenyl-1-(2-dimethylaminopropyl)-2-butanone]
Comments: solubility [3]: Soluble in water; freely soluble in alcohol and in chloroform; practically insoluble in ether and in glycerol

C=CCN1CC[C@]23c4c5ccc(O)c4O[C@H]2C(=O)CC[C@@]3(O)[C@H]1C5 [NALOXONE, (−)-17-Allyl-4, 5α-epoxy-3,14-dihydroxymorphinan-6-one hydrochloride]
Comments: solubility [3]: freely soluble in USP alcohol and very soluble in water

CCc1nn(CCCN2CCN(c3cccc(Cl)c3)CC2)c(=O)n1CCOc1ccccc1 [NEFAZODONE, 2-(3-(4-(3-chlorophenyl)-1-piperazinyl)propyl)-5-ethyl-2,4-dihydro-4-(2-phenoxyethyl)-3H-1,2,4-triazol-3-one]
Solubility in water ([3]; at 25 C.): Soluble in water <0.1 g/100 mL at 25 C.

O=C1CN=C(c2ccccc2)c2cc([N+](=O)[O-])ccc2N1 [NITRAZEPAM, 1,3-Dihydro-7-nitro-5-phenyl-2H-1,4-benzodiazepin-2-one]
Comments: solubility [3]: Soluble 1 in 12 of water, 1 in 14 of alcohol, and 1 in 3.5 of chloroform; insoluble in ether; freely soluble in methyl alcohol

NC(=O)N1c2ccccc2CC(=O)c2ccccc21 [OXCARBAZEPINE, 10,11-Dihydro-10-oxo-5H-dibenz[b,f]azepine-5-carboxamide]
Comments: solubility [3]: Freely soluble in water, in alcohol, and in dichloromethane

O=C1NC(=O)C(c2ccccc2)(c2ccccc2)N1 [PHENYTOIN, 5,5-diphenyl-2,4-imidazolidinedione]
Comments: solubility [3]: Very soluble in water | alleviation of seizures [5]: efficacious therapeutic alleviation of seizures

COc1cc2nc(N3CCN(C(=O)c4ccco4)CC3)nc(N)c2cc1OC.Cl [PRAZOSIN, 2-[4-(2-Furoyl)piperazin-1-yl]-6,7 dimethoxyquinazolin-4-ylamine hydrochloride]
Solubility in water [3]: very slightly soluble in water (<1 mg/ml) and readily soluble in organic solvents such as ethanol and acetone | Comments: solubility [3]: very slightly soluble in water (<1 mg/ml) and readily soluble in organic solvents such as ethanol and acetone

CC(C)NCC(O)COc1cccc2ccccc12.Cl (stereo not drawn) [PROPRANOLOL, 1-(Isopropylamino)-3-(1-naphthyloxy)-2-propanol hydrochloride]
Comments: solubility [3]: soluble in methanol or ethanol but which has no appreciable solubility in water at physiological pH

NNCCc1ccccc1 [Phenelzine, 2-Phenylethylhydrazine]
Human oral equivalent [1]: 1.5 mg/kg | Rodent ICV dose ([2]; effective daily dose): 1.8 mg/kg | efficacy following ICV administration ([2]; elevated plus maze and open field conflicts test): efficacy | Efficacy ([2]; rat, in vivo): anxiety reduction | % of Oral dose [2]: 120%

OCCOCCN1CCN(C2=Nc3ccccc3Sc3ccccc32)CC1 [Quetiapine]
alleviation of psychotic symptoms [4]: efficacious therapeutic alleviation of psychotic symptoms

O=C(O)c1ccccc1O [SALICYLIC ACID, 2-Hydroxybenzoic acid]
Comments: solubility [3]: almost insoluble in water

CN1CCN(CC/C=C2/c3ccccc3Sc3ccc(S(=O)(=O)N(C)C)cc32)CC1 [THIOTHIXINE, cis isomer of N,N-dimethyl-9-[…]3-(4-methyl-1-piperazinyl)-propylidene[…] thioxanthene-2-sulfonamide.]
Comments: solubility [3]: Slightly soluble in water; soluble in alcohol and in methyl alcohol

Cl.O=c1n(CCCN2CCN(c3cccc(Cl)c3)CC2)nc2ccccn12 [TRAZODONE]
Solubility in water ([3]; at 20 C.): insoluble in water <0.1 g/100 mL at 20 C.

Cc1nnc2n1-c1ccc(Cl)cc1C(c1ccccc1Cl)=NC2 [TRIAZOLAM, 8-chloro-6-(o-chlorophenyl)-1-methyl-4H-s-triazolo-(4,3-alpha)(1,4) benzodiazepine]
Comments: solubility [3]: practically insoluble in water and soluble in alcohol and in acetone

NC(=O)N1c2ccccc2C=Cc2ccccc21 [Tegretol, 5H-dibenz[b,f]azepine-5-carboxamide]
Human oral equivalent [1]: 6.66 mg/kg | Comments: solubility [3]: Slightly soluble in water and in alcohol | alleviation of seizures [5]: efficacious therapeutic alleviation of seizures | % Change [6]: 60% | Rodent ICV dose [6]: 0.00888 mg/kg | Efficacy [6]: effective in blocking | % of Oral dose [6]: 0.13%

CCCC(CCC)C(=O)O [Valproate, 2-Propylpentanoic acid]
Human oral equivalent [1]: 1 mg/kg

Cc1nccn1CC1CCc2c(c3ccccc3n2C)C1=O (stereo not drawn) [ondansetron]
TC ratio [7]: significantly reduced TC ratios

(−)-trans-4R-(4′- fluorophenyl)-3S-((3′,4′- methylenedioxyphenoxy) methyl)piperidine [PAROXETINE]
Comments: solubility [3]: soluble in alcohol and poorly soluble in water

cyclodextrin
toxicity of cyclodextrin alone [8]: no toxicity
